Measured values as given in patent EP4596561A1, “PHOSPHORUS-CONTAINING COMPOUND, PHARMACEUTICAL COMPOSITION AND USE THEREOF” (Suzhou Genhouse Bio Co., Ltd., priority 2022, dated 2024).
Read-outs that look alike come from different tables or passages of the source.

Key:
[1] = system: MSTO-211H (NF2 wide-type); assay: Inhibition of cell proliferation (CellTiter-Lumi); format: cell-based; conditions: Homo sapiens, 72 h + another 72 h treatment
Experimental: (§1) NCI-H2052 (NF2 mutant), NCI-H226 (NF2 mutant), NCI-H2452 (NF2 wide-type), NCI-H28 (NF2 wide-type), and MSTO-211H (NF2 wide-type) cells were cultured in RPMI 1640 complete media.
(§2) The normally growing cells described above were digested with a trypsin cell-digesting solution, centrifuged, counted, and then plated in a 96-well plate at a density of 1000 cells per well. Administration was performed 24 h after the cell plating. Inhibitors at different concentration gradients were added at 10 µL per well, and three replicate wells were set for each concentration point. The starting concentration was 20 µM and diluted 8 times with a 4-fold gradient. A corresponding negative control group treated with 0.1% DMSO was also set up. After 72 h of drug treatment, the cell culture plate to be tested was taken out of the incubator. The culture medium in the 96-well plate was pipetted, and 190 µL of fresh RPMI 1640 complete medium was added. Another administration was performed, and the cells were cultured for another 72 h. The 96-well plate was taken out and allowed to equilibrate at room temperature for 10 min. The medium in the 96-well plate was pipetted, and 200 µL of CellTiter-Lumi™ luminescent cell viability detection solution (mixed with a medium in a ratio of 1:1) was added. After shaking for two minutes, the mixture was reacted at room temperature for 10 min. Then, 150 µL of liquid was pipetted from the transparent 96-well plate and transferred to a white 96-well plate for chemiluminescence reading. The background value was subtracted from the value for each well to calculate the cell survival rate. Survival rate (%) = […]. Sample is the chemiluminescence of the drug-treated group, and Vehicle is the […] of the DMSO control group. A sigmoidal dose-survival rate curve was plotted using a non-linear regression model in the GraphPad Prism 7.0 software, and the IC50 values or GI50 values were calculated.

[2] = system: YAP-TEAD transcription complex; assay: YAP-TEAD reporter gene assay (dual luciferase, stably transfected 293T cells); format: cell-based; conditions: Homo sapiens, HEK-293T; 293T reporter cells, 24 h of drug treatment; read-out: IC50
Experimental: YAP-TEAD reporter gene The YAP-TEAD reporter gene assay was performed as follows. Firstly, the 8xGTIIC promoter sequence ([…] GTACTGTTGGTAAA) was constructed into a pGL4.20(luc2-Puro) plasmid, and the TK promoter ([…]) unrelated to the hippo pathway was constructed into a pGL4.78(hRlucCP/Hygro) plasmid, thereby constructing stably transfected 293T cells that can stably and continuously express the transcriptional activity of the YAP-TEAD transcription complex. After selection and identification of individual clones, the clones were grown and maintained in a DMEM medium containing 10% fetal bovine serum, penicillin-streptomycin solution, 1 µg/mL puromycin, and 150 µg/mL hygromycin. To perform reporter gene assays with the compounds to be tested, the well-growing cells described above were plated in a 384-well plate at a cell density of 3000 cells per well, with 90 µL per well. The periphery was sealed with an appropriate amount of PBS to prevent evaporation of water from the peripheral wells. Administration was performed on the next day after the cell plating. The test compounds were added at different concentration gradients, and three replicate wells were set for each concentration point. The compound concentration started at 5 µM and was diluted seven times with a 5-fold gradient. A corresponding negative control group treated with DMSO was also set up. After 24 h of drug treatment, the detection reagents were prepared first. The Dual-Lumi™ Firefly luciferase detection reagent and Dual-Lumi™ Renilla luciferase detection buffer were dissolved and brought to room temperature. […]. According to the amount of 100 µL of Dual-Lumi™ Renilla luciferase detection working solution required for the detection of each sample, an appropriate amount of Dual-Lumi™ Renilla luciferase detection working solution was prepared. […]. The cell culture plate was taken out and allowed to equilibrate at room temperature for 10 min (usually no more than 30 min). Then, 100 µL of Dual-Lumi™ Firefly luciferase detection reagent was added to each well of a 96-well plate (25 µL per well for the 384-well plate), and the mixture was mixed well. The mixture was then incubated at room temperature (about 25 °C) for 10 min to stabilize the luminescent signal, and then chemiluminescence was detected using a multimode microplate reader with a chemiluminescence detection function. Subsequently, the detection of Renilla luciferase began. Firstly, 100 µL of Dual-Lumi™ Renilla luciferase detection working solution was added to each well of a […] (25 µL per well for the 384-well plate), and the mixture was mixed well. The mixture was then incubated at room temperature (about 25 °C) for 10 min to stabilize the luminescent signal. Finally, chemiluminescence was detected using a multimode microplate reader with a chemiluminescence detection function. The obtained data were analyzed using GraphPad Prism 7.0 software. A sigmoidal dose-survival rate curve was plotted using a non-linear regression model, and the IC50 values were calculated.

[3] = Pharmacokinetic test in mice (low dose); format: in vivo, Balb/c mice; conditions: mouse, plasma, mice; for AUC(0-t): read-out: AUClast; for half-life: read-out: T1/2 (converted)
Experimental: The compounds of the present disclosure were administered to Balb/c mice by single intravenous injection and oral gavage, and the plasma of the mice at each time point was collected. The concentration of the compounds to be tested in BALB/C plasma was detected using the LC-MS/MS analysis method, and pharmacokinetic analysis was performed.
The mixture was vortexed, shaken, and ultrasonicated. The remaining volume of 25% sulfobutylether-β-cyclodextrin (sterilized) was added to prepare the final concentration solution or suspension.
Intravenous injection formulations will be directly administered in animal experiments without filtration. The IV drug preparation vials were disinfected in an infrared sterilization cabinet one day in advance.
Intravenous injection: Administration was performed via the tail vein. After the needle was inserted, the syringe was slowly […].
Gavage: Gavage needle and syringe of an appropriate type were selected. The gavage needle was inserted from the root of the tongue into the esophagus until it reached near the cardia of the stomach, then the drug formulation was injected, and the gavage needle was withdrawn. When disposable plastic gavage needles were used, one needle was used for each group.
At each time point, 60 µL of whole blood was collected from the submandibular vein or tail vein (except for the IV group). The blood sample was added to a pre-cooled anticoagulant blood collection tube containing anticoagulant EDTA-K2 (1 µL, 15% EDTA-K2 solution), placed on wet ice, and centrifuged (3000 g, 4 °C, 10 min) within 1 h. The plasma was immediately collected after centrifugation, transferred to an EP tube, and stored at -90 °C to -60 °C.
Plasma concentration detection: A developed LC-MS/MS method was used to detect the compounds in plasma.
The plasma concentration-time data were analyzed using a non-compartmental model in the Phoenix® WinNonlin® (Version 8.2, Pharsight, Mountain View, CA).

NCI-H28 (NF2 wide-type) = assay: Inhibition of cell proliferation (CellTiter-Lumi); format: cell-based; conditions: Homo sapiens, 72 h + another 72 h treatment
Experimental: as §1
as §2, with “The medium in the 96-well plate was pipetted, and 200 µL of CellTiter-Lumi™ luminescent cell viability detection solution (mixed with a medium in a ratio of 1:1) was added.” left out

[4] = system: NCI-H2452 (NF2 wide-type); assay: Inhibition of cell proliferation (CellTiter-Lumi); format: cell-based; conditions: Homo sapiens, 72 h + another 72 h treatment
Experimental: as §1
as §2, with “The medium in the 96-well plate was pipetted, and 200 µL of CellTiter-Lumi™ luminescent cell viability detection solution (mixed with a medium in a ratio of 1:1) was added.” left out

For `CP(C)(=O)c1ccc2c(c1)c1ncccc1n2-c1ccc(C(F)(F)F)cc1` [Example 4], which IC50 [1] is on record?
The IC50 was greater than 1250 nM.

And the IC50 [2]?
Its IC50 is 123 nM.

What about the MRT ([3]; IV 2 mg/kg) of the same molecule?
Its MRT is 6.4 h.

And the AUC(0-t) ([3]; IV 2 mg/kg)?
Its AUC(0-t) is 9.23 µM·h.

And the clearance ([3]; IV 2 mg/kg, read-out: Cl (converted))?
The clearance was 8.33 mL/min/kg.

And the half-life ([3]; IV 2 mg/kg)?
Its half-life is 6.3 h.

What about the MRT ([3]; PO 10 mg/kg) of the same molecule?
Its MRT is 5.3 h.

What about the bioavailability ([3]; PO 10 mg/kg vs IV 2 mg/kg, read-out: F%) of the same molecule?
The bioavailability was 163%.

What about the AUC(0-t) ([3]; PO 10 mg/kg) of the same molecule?
The AUC(0-t) was 79 µM·h.

What about the Cmax ([3]; PO 10 mg/kg, read-out: Cmax) of the same molecule?
Its Cmax is 9.36 µM.

And the half-life ([3]; PO 10 mg/kg)?
The half-life was 3.3 h.

And the IC50 (NCI-H28 (NF2 wide-type))?
The IC50 was greater than 1250 nM.

And the IC50 [4]?
Its IC50 is greater than 5000 nM.
